The test system of assay [1] is Dengue 2 virus MY97-10340. The assay can be described thus: High-content imaging cell-based flavivirus immunodetection (HCl-CFI) assay, Dengue 2. The settings on record: Dengue virus, A549, 48 h, read-out: Dengue 2 virus MY97-10340 in A549 using HCl [Inhibitor/IC50] Qualified AC50, A549 cells, MOI 0.3, 48 h, viral E protein expression. The method in brief: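 A549 cells infected at MOI 0.3, treated with 3-fold, 10-point compound dilutions for 48 h. After paraformaldehyde fixation, viral E protein immunostained with 4G2 antibody and nuclei counterstained; imaged by high-content imaging. EC50 = concentration reducing E protein expression by 50%, from dose-response curves.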

In assay [2] the test system is Dengue 4 virus MY01-22713. The assay is described as follows: High-content imaging cell-based flavivirus immunodetection (HCl-CFI) assay, Dengue 4. The settings on record: Dengue virus, A549, 48 h, read-out: Dengue 4 virus MY01-22713 in A549 using HCl [Inhibitor/IC50] Qualified AC50, A549 cells, 48 h, viral E protein expression.
For assay [3], the system named is Dengue 3 virus MY05-34640-WT-C6/36. The assay is described as follows: High-content imaging cell-based flavivirus immunodetection (HCl-CFI) assay, Dengue 3. The settings on record: Dengue virus, A549, 48 h, read-out: Dengue 3 virus MY05-34640-WT-C6/36 in A549 using HCl [Inhibitor/IC50] Qualified AC50.
For assay [4], the system named is Dengue 1 virus MY97-10245. The assay is described as follows: High-content imaging cell-based flavivirus immunodetection (HCl-CFI) assay, Dengue 1. The settings on record: Dengue virus, A549, 48 h, read-out: Dengue 1 virus MY97-10245 in A549 using HCl [Inhibitor/IC50] Qualified AC50.

The text below walks through data of patent publication US12012417B2, “N-substituted tetrahydrothienopyridine derivatives and uses thereof” (NOVARTIS AG, priority 2018, dated 2024).

Where a name gives a salt, the structure may show the parent alone.

As for `COc1cc(CC(=O)N(C)c2sc3c(c2C#N)CN(CC2CCCCC2)CC3)ccc1S(N)(=O)=O` [Example 48, N-(3-cyano-5-(cyclohexylmethyl)-4,5,6,7-tetrahydrothieno[3,2-c]pyridin-2-yl)-2-(3-methoxy-4-sulfamoylphenyl)-N-methylacetamide], the EC50 in assay [1], in assay [2], in assay [3] and in assay [4] was greater than 1000 nM each time.
For `COc1cc(CC(=O)Nc2sc3c(c2C#N)C(C)(C)N(Cc2ccccc2)CC3)ccc1S(N)(=O)=O` [Example 49, N-(5-benzyl-3-cyano-4,4-dimethyl-4,5,6,7-tetrahydrothieno[3,2-c]pyridin-2-yl)-2-(3-methoxy-4-sulfamoylphenyl)acetamide], the EC50 is 100 to 1000 nM in assay [1], greater than 1000 nM in assay [2], 100 to 1000 nM in assay [3] and greater than 1000 nM in assay [4].
For the molecule `COc1cc(CC(=O)Nc2sc3c(c2C#N)CN(CC2CC(F)(F)C2)CC3)ccc1S(N)(=O)=O` [Example 50, N-(3-cyano-5-((3,3-difluorocyclobutyl)methyl)-4,5,6,7-tetrahydrothieno[3,2-c]pyridin-2-yl)-2-(3-methoxy-4-sulfamoylphenyl)acetamide], the EC50 in assay [1], in assay [2], in assay [3] and in assay [4] was 100 to 1000 nM each time.
As for `COc1cc(CC(=O)Nc2sc3c(c2C#N)CN(CC2CC(F)(F)C2)CC3)ccc1S(C)(=O)=O` [Example 51, N-(3-cyano-5-((3,3-difluorocyclobutyl)methyl)-4,5,6,7-tetrahydrothieno[3,2-c]pyridin-2-yl)-2-(3-methoxy-4-(methylsulfonyl)phenyl)acetamide], the EC50 in assay [1], in assay [2], in assay [3] and in assay [4] was 100 to 1000 nM each time.
Consider `N#Cc1c(NC(=O)Cc2ccc3c(c2)CNS3(=O)=O)sc2c1CN(CC1CC(F)(F)C1)CC2` [Example 52, N-(3-cyano-5-((3,3-difluorocyclobutyl)methyl)-4,5,6,7-tetrahydrothieno[3,2-c]pyridin-2-yl)-2-(1,1-dioxido-2,3-dihydrobenzo[d]isothiazol-5-yl)acetamide], for which the EC50 in assay [1] was 100 to 1000 nM; in assay [2] it was 100 to 1000 nM; in assay [3], 100 to 1000 nM; in assay [4] it was greater than 1000 nM.
As to `CC1Cc2sc(NC(=O)Cc3ccc(S(N)(=O)=O)cc3)c(C#N)c2CN1CC1CC(F)(F)C1` (centres unmarked) [Example 56, N-(3-cyano-5-((3,3-difluorocyclobutyl)methyl)-6-methyl-4,5,6,7-tetrahydrothieno[3,2-c]pyridin-2-yl)-2-(4-sulfamoylphenyl)acetamide], the EC50 is 100 to 1000 nM in assay [1], less than 100 nM in assay [2], 100 to 1000 nM in assay [3] and greater than 1000 nM in assay [4].
As for `CC1Cc2sc(NC(=O)Cc3ccc(S(=O)(=O)NCC4CC(F)(F)C4)cc3)c(C#N)c2CN1CC1CC(F)(F)C1` (centres unmarked) [Example 57, N-(3-cyano-5-((3,3-difluorocyclobutyl)methyl)-6-methyl-4,5,6,7-tetrahydrothieno[3,2-c]pyridin-2-yl)-2-(4-(N-((3,3-difluorocyclobutyl)methyl)sulfamoyl)phenyl)acetamide], the EC50 in assay [1] was 100 to 1000 nM; in assay [2], 100 to 1000 nM; in assay [3], greater than 1000 nM; in assay [4], greater than 1000 nM.
Consider `CC1Cc2sc(NC(=O)Cc3ccc(C(N)=O)cc3)c(C#N)c2CN1Cc1cccc(F)c1` (centres unmarked) [Example 58, 4-(2-((3-cyano-5-(3-fluorobenzyl)-6-methyl-4,5,6,7-tetrahydrothieno[3,2-c]pyridin-2-yl)amino)-2-oxoethyl)benzamide], for which the EC50 was less than 100 nM in assay [1], less than 100 nM in assay [2], less than 100 nM in assay [3] and 100 to 1000 nM in assay [4].
Regarding `CC1Cc2sc(NC(=O)Cc3ccc(S(N)(=O)=O)cc3)c(C#N)c2CN1CC1CCCC1` (centres unmarked) [Example 59, N-(3-cyano-5-(cyclopentylmethyl)-6-methyl-4,5,6,7-tetrahydrothieno[3,2-c]pyridin-2-yl)-2-(4-sulfamoylphenyl)acetamide hydrochloride], the EC50 was 100 to 1000 nM in assay [1], 100 to 1000 nM in assay [2], 100 to 1000 nM in assay [3] and greater than 1000 nM in assay [4].
`CC1Cc2sc(NC(=O)Cc3ccc(S(N)(=O)=O)cc3)c(C#N)c2CN1CC1CCC1` (centres unmarked) [Example 60, N-(3-cyano-5-(cyclobutylmethyl)-6-methyl-4,5,6,7-tetrahydrothieno[3,2-c]pyridin-2-yl)-2-(4-sulfamoylphenyl)acetamide]: the EC50 is 100 to 1000 nM in assay [1], 100 to 1000 nM in assay [2], 100 to 1000 nM in assay [3] and greater than 1000 nM in assay [4].
Consider `CC1Cc2sc(NC(=O)Cc3ccc(S(=O)(=O)NCC4CCCC4)cc3)c(C#N)c2CN1CC1CCCC1` (centres unmarked) [Example 61, N-(3-cyano-5-(cyclopentylmethyl)-6-methyl-4,5,6,7-tetrahydrothieno[3,2-c]pyridin-2-yl)-2-(4-(N-(cyclopentylmethyl)sulfamoyl)phenyl)acetamide], for which the EC50 is 100 to 1000 nM in assay [1], greater than 1000 nM in assay [2], greater than 1000 nM in assay [3] and greater than 1000 nM in assay [4].
As for `CC1Cc2sc(NC(=O)Cc3ccc(S(N)(=O)=O)cc3)c(C#N)c2CN1CC1CCCCC1` (centres unmarked) [Example 62, N-(3-cyano-5-(cyclohexylmethyl)-6-methyl-4,5,6,7-tetrahydrothieno[3,2-c]pyridin-2-yl)-2-(4-sulfamoylphenyl)acetamide], the EC50 in assay [1] is less than 100 nM; in assay [2] it was less than 100 nM; in assay [3], less than 100 nM; in assay [4], 100 to 1000 nM.
As for `CC1Cc2sc(NC(=O)Cc3ccc(S(=O)(=O)NCC4CCCCC4)cc3)c(C#N)c2CN1CC1CCCCC1` (centres unmarked) [Example 63, N-(3-cyano-5-(cyclohexylmethyl)-6-methyl-4,5,6,7-tetrahydrothieno[3,2-c]pyridin-2-yl)-2-(4-(N-(cyclohexylmethyl)sulfamoyl)phenyl)acetamide], the EC50 in assay [1] is 100 to 1000 nM; in assay [2] it was 100 to 1000 nM; in assay [3], 100 to 1000 nM; in assay [4] it was greater than 1000 nM.
On to `CC1Cc2sc(NC(=O)Cc3ccc(S(N)(=O)=O)cc3)c(C#N)c2CN1Cc1cc(Cl)ccc1Cl` (centres unmarked) [Example 64, N-(3-cyano-5-(2,5-dichlorobenzyl)-6-methyl-4,5,6,7-tetrahydrothieno[3,2-c]pyridin-2-yl)-2-(4-sulfamoylphenyl)acetamide], for which the EC50 in assay [1], in assay [2], in assay [3] and in assay [4] was less than 100 nM in each case.
On to `CC1Cc2sc(NC(=O)Cc3ccc(S(N)(=O)=O)cc3)c(C#N)c2CN1CCc1ccccc1` (centres unmarked) [Example 67, N-(3-cyano-6-methyl-5-phenethyl-4,5,6,7-tetrahydrothieno[3,2-c]pyridin-2-yl)-2-(4-sulfamoylphenyl)acetamide], for which the EC50 is less than 100 nM in assay [1], less than 100 nM in assay [2], less than 100 nM in assay [3] and greater than 1000 nM in assay [4].
Take `CC1Cc2sc(NC(=O)Cc3ccc(S(N)(=O)=O)cc3)c(C#N)c2CN1CCC1CCCCC1` (centres unmarked) [Example 68, N-(3-cyano-5-(2-cyclohexylethyl)-6-methyl-4,5,6,7-tetrahydrothieno[3,2-c]pyridin-2-yl)-2-(4-sulfamoylphenyl)acetamide]: the EC50 in assay [1] was less than 100 nM; in assay [2] it was less than 100 nM; in assay [3], less than 100 nM; in assay [4] it was 100 to 1000 nM.
As to `CC1Cc2sc(NC(=O)Cc3ccc(S(C)(=O)=O)cc3)c(C#N)c2CN1Cc1cccc(F)c1` (centres unmarked) [Example 69, N-(3-cyano-5-(3-fluorobenzyl)-6-methyl-4,5,6,7-tetrahydrothieno[3,2-c]pyridin-2-yl)-2-(4-(methylsulfonyl)phenyl)acetamide], the EC50 is less than 100 nM in assay [1], less than 100 nM in assay [2], less than 100 nM in assay [3] and 100 to 1000 nM in assay [4].
Consider `CC1Cc2sc(NC(=O)Cc3ccc(S(C)(=O)=O)cc3)c(C#N)c2CN1Cc1cc(Cl)ccc1Cl` (centres unmarked) [Example 70, N-(3-cyano-5-(2,5-dichlorobenzyl)-6-methyl-4,5,6,7-tetrahydrothieno[3,2-c]pyridin-2-yl)-2-(4-(methylsulfonyl)phenyl)acetamide], for which the EC50 in assay [1] is less than 100 nM; in assay [2] it was less than 100 nM; in assay [3] it was less than 100 nM; in assay [4], 100 to 1000 nM.
With `CC1(C)CS(=O)(=O)c2ccc(CC(=O)Nc3sc4c(c3C#N)CN(CC3CCCCC3)C(C)(C)C4)cc21` [Example 72, N-(3-cyano-5-(cyclohexylmethyl)-6,6-dimethyl-4,5,6,7-tetrahydrothieno[3,2-c]pyridin-2-yl)-2-(3,3-dimethyl-1,1-dioxido-2,3-dihydrobenzo[b]thiophen-5-yl)acetamide], the EC50 in assay [1], in assay [2], in assay [3] and in assay [4] was less than 100 nM each time.
For `CC1(C)Cc2sc(NC(=O)Cc3ccccc3)c(C#N)c2CN1CC1CCCCC1` [Example 73, N-(3-cyano-5-(cyclohexylmethyl)-6,6-dimethyl-4,5,6,7-tetrahydrothieno[3,2-c]pyridin-2-yl)-2-phenylacetamide], the EC50 in assay [1], in assay [2], in assay [3] and in assay [4] was 100 to 1000 nM each time.
